Test results as given in ChEMBL document CHEMBL1201862, “PubChem BioAssay data set” (2004).
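Cultured in 96-well plates, cells were exposed to test compound for 48 hours across five concentrations. GI50 is the concentration that inhibits growth by half.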 The source made the active and inactive calls. Rule as the data show it: active = GI50 up to about 1.1 µM and inactive = higher.

Tests used:
Assay in all cases: growth of human tumour cells (NCI), 48 h
CCRF-CEM = test system: CCRF-CEM
NCI-H522 = test system: NCI-H522
COLO 205 = test system: COLO 205
LOX IMVI = test system: LOX IMVI
786-0 = test system: 786-0
HOP-92 = test system: HOP-92
KM12 = test system: KM12
UO-31 = test system: UO-31
A549 = test system: A549
NCI-H460 = test system: NCI-H460
NCI-H23 = test system: NCI-H23
OVCAR-4 = test system: OVCAR-4
MOLT-4 = test system: MOLT-4
SF-539 = test system: SF-539
OVCAR-8 = test system: OVCAR-8
EKVX = test system: EKVX
NCI-H226 = test system: NCI-H226
T47D = test system: T47D
MDA-MB-435 = test system: MDA-MB-435
DU-145 = test system: DU-145

Measured: GI50

NC(CCCCNCc1ccccc1)C(=O)O (stereo not drawn)
inactive: CCRF-CEM > 100 µM | NCI-H522 > 100 µM | COLO 205 > 100 µM | LOX IMVI > 100 µM | 786-0 > 100 µM | HOP-92 > 100 µM | KM12 > 100 µM | UO-31 > 100 µM | A549 > 100 µM | NCI-H460 > 100 µM | NCI-H23 > 100 µM | OVCAR-4 > 100 µM | MOLT-4 > 100 µM | SF-539 > 100 µM | OVCAR-8 > 100 µM | EKVX > 100 µM | NCI-H226 > 100 µM

CCCCCCCCCCCC(=O)C1=C(O)CCC(O)C1=O (stereo not drawn)
inactive: CCRF-CEM 8.18 µM | NCI-H522 12.1 µM | COLO 205 15.1 µM | LOX IMVI 11.3 µM | 786-0 19.4 µM | HOP-92 17.7 µM | KM12 17.9 µM | UO-31 19.7 µM | A549 29.9 µM | NCI-H460 15.7 µM | NCI-H23 3.48 µM | OVCAR-4 18.5 µM | MOLT-4 17.9 µM | SF-539 19.1 µM | OVCAR-8 10.1 µM | EKVX 5.86 µM | NCI-H226 18 µM

CC1(O)C=CC(=O)C=C1
inactive: CCRF-CEM 22.2 µM | NCI-H522 18.6 µM | COLO 205 34.8 µM | LOX IMVI 20.4 µM | 786-0 20.7 µM | HOP-92 > 100 µM | KM12 > 48.2 µM | UO-31 36.6 µM | A549 > 76.4 µM | NCI-H460 20.3 µM | NCI-H23 30.3 µM | OVCAR-4 40.9 µM | MOLT-4 19.2 µM | SF-539 23.5 µM | OVCAR-8 25.3 µM | EKVX 47.3 µM | NCI-H226 > 100 µM

C/C(=N/NC(=O)c1ccccc1S(N)(=O)=O)C(CN1CCCCC1)C(C1=C(O)C2C=CC=CC2OC1=O)c1ccccc1 (stereo not drawn)
inactive: CCRF-CEM 21.9 µM | NCI-H522 52.7 µM | COLO 205 18.6 µM | LOX IMVI 74.5 µM | 786-0 > 100 µM | HOP-92 14 µM | KM12 97.3 µM | UO-31 74.5 µM | A549 91.2 µM | NCI-H460 77.4 µM | NCI-H23 > 100 µM | OVCAR-4 67.1 µM | SF-539 > 100 µM | OVCAR-8 > 100 µM | EKVX > 100 µM | NCI-H226 90.2 µM

CC(C)=CC(O)C(C(O)CCC1(C)OCCO1)S(=O)(=O)c1ccccc1 (stereo not drawn)
inactive: T47D > 100 µM | CCRF-CEM > 100 µM | NCI-H522 > 100 µM | COLO 205 > 100 µM | LOX IMVI > 100 µM | 786-0 > 100 µM | KM12 > 100 µM | UO-31 > 100 µM | A549 > 100 µM | MDA-MB-435 > 100 µM | NCI-H460 > 100 µM | NCI-H23 > 100 µM | OVCAR-4 > 100 µM | SF-539 > 100 µM | OVCAR-8 > 100 µM | EKVX > 100 µM | NCI-H226 > 100 µM

O=c1cnnc2sc(=S)[nH]n12
inactive: CCRF-CEM 2.07 µM | DU-145 > 100 µM | NCI-H522 8.45 µM | COLO 205 > 100 µM | LOX IMVI 4.13 µM | 786-0 22.5 µM | KM12 > 100 µM | UO-31 22.2 µM | A549 46.7 µM | MDA-MB-435 24.7 µM | NCI-H460 26.7 µM | OVCAR-4 16.7 µM | MOLT-4 15 µM | SF-539 > 100 µM | OVCAR-8 16.4 µM | EKVX > 100 µM

N#C/C(=C/c1ccco1)C(=O)c1ccccc1
inactive: CCRF-CEM > 100 µM | NCI-H522 > 100 µM | COLO 205 > 100 µM | LOX IMVI > 100 µM | 786-0 > 100 µM | HOP-92 > 100 µM | KM12 > 100 µM | UO-31 > 100 µM | A549 > 100 µM | NCI-H460 > 100 µM | NCI-H23 > 100 µM | OVCAR-4 > 100 µM | MOLT-4 > 100 µM | SF-539 > 100 µM | OVCAR-8 > 100 µM | EKVX > 100 µM | NCI-H226 > 100 µM

CCCCCCCCCCCCOCCOCCOCCOCCOCCOCC(=O)NC(Cc1ccccc1)C(=O)Oc1ccc([N+](=O)[O-])cc1 (stereo not drawn)
inactive: T47D 40 µM | CCRF-CEM 31.7 µM | NCI-H522 29.9 µM | COLO 205 15.8 µM | LOX IMVI 29.8 µM | 786-0 34.9 µM | HOP-92 26.7 µM | KM12 40.1 µM | UO-31 26 µM | A549 43 µM | MDA-MB-435 30.6 µM | NCI-H460 30.5 µM | NCI-H23 32.3 µM | OVCAR-4 40.9 µM | MOLT-4 23.2 µM | SF-539 36.4 µM | OVCAR-8 44.5 µM | EKVX 61.2 µM | NCI-H226 59 µM

CN1c2ccccc2N(C(=O)c2ccc([N+](=O)[O-])cc2)C(CC(=O)O)c2cccn21 (stereo not drawn)
inactive: CCRF-CEM > 100 µM | NCI-H522 > 100 µM | COLO 205 > 100 µM | LOX IMVI > 100 µM | 786-0 > 100 µM | HOP-92 > 100 µM | KM12 > 100 µM | UO-31 > 100 µM | A549 > 100 µM | NCI-H460 > 100 µM | NCI-H23 > 100 µM | OVCAR-4 > 100 µM | MOLT-4 > 100 µM | SF-539 > 100 µM | OVCAR-8 > 100 µM | EKVX > 100 µM | NCI-H226 > 100 µM

COC1O[C@H]2CCN(C(=O)OCc3ccccc3)[C@H]2[C@H]1OCc1ccccc1 (stereo partly drawn)
inactive: CCRF-CEM 34.9 µM | NCI-H522 37.6 µM | COLO 205 70.3 µM | LOX IMVI 56.6 µM | 786-0 > 100 µM | HOP-92 26.6 µM | UO-31 29.2 µM | A549 4.33 µM | NCI-H460 44.3 µM | NCI-H23 20.3 µM | OVCAR-4 > 62.4 µM | MOLT-4 36 µM | SF-539 > 100 µM | OVCAR-8 69.7 µM | EKVX 49.2 µM | NCI-H226 78 µM

COC(=O)C1OC2(CCCC3CC32)O[C@H]1C(=O)OC (stereo partly drawn)
inactive: CCRF-CEM > 100 µM | DU-145 > 100 µM | NCI-H522 > 100 µM | COLO 205 > 100 µM | LOX IMVI > 100 µM | 786-0 > 100 µM | HOP-92 68.7 µM | KM12 > 100 µM | UO-31 > 100 µM | A549 > 100 µM | MDA-MB-435 > 100 µM | NCI-H460 90.4 µM | NCI-H23 > 100 µM | OVCAR-4 > 100 µM | MOLT-4 > 100 µM | SF-539 > 100 µM | OVCAR-8 > 100 µM | EKVX > 100 µM | NCI-H226 > 100 µM
